The results in this text go back to patent publication US20250281590A1, “IMMUNOGENIC COMPOSITIONS COMPRISING CONJUGATED ESCHERICHIA COLI SACCHARIDES AND USES THEREOF” (Pfizer Inc., priority 2024, published 2025).

What all share (assay): IgG dLIA with pAb standards, NHP sera, CpG study (Example 5)
What all share (type): in vivo, rhesus macaque

In test [1] the test system is E. coli O-antigen serotype O25b. The settings on record: 4 valent O-antigen SCP with CpG 1800 μg; after each vaccination; dLIA standard (pAb/mAb) not specified; listed as CpG. Here is the method: (§1) The 4-plex O-antigen IgG dLIA serology assay was completed as follows: The primate serology assay utilized the same O-antigen MagPlex®-C microspheres (Luminex) as the mouse serology assay described in Example 3, above. Microspheres were incubated with serially diluted NHP serum samples, controls, and human polyclonal serum standards overnight at 2-8° C. while shaking. In this case, bound serotype-specific IgG was detected with PE-conjugated goat anti-human IgG. Fcγ fragment-specific secondary antibody (Jackson Laboratories) and fluorescence was measured on the FlexMap 3D instrument ([…]). Human serum containing IgG to all four O-antigens was used as an internal standard for interpolating NHP serum IgG concentrations. […] Lower limit of quantification (LLOQ) was defined as 2 U/mL.
(§2) In this study, the adjuvanting effect of nucleotide adjuvant CpG 24555 on immunogenicity of E. coli O-antigen SCP glycoconjugates of serotypes O1a, O2, O6, and O25b was assessed in a NHP (Rhesus Macaques) model.
(§3) 20 male rhesus macaques were selected for this study. Three groups of Rhesus macaques were vaccinated with the 4 valent O-antigen SCP glycoconjugates including one group without CpG adjuvant, one group with CpG adjuvant and a lower dose of the 4 valent O-antigen SCP glycoconjugates, and one group with CpG adjuvant and a higher dose of 4 valent O-antigen SCP glycoconjugates. The no adjuvant control group, as well as the group with CpG adjuvant and the higher dose of glycoconjugates included 2 μg of serotypes O1a, O2, and O6, as well as 4 μg of serotype O25b. The group with CpG adjuvant and the lower dose of glycoconjugates included 0.5 μg of serotypes O1a, O2, and O6, as well as 1 μg of serotype O25b. Vaccination was administered at months 0, 2, and 6. Animals were bled prior to vaccination and at weeks 1, 2, 4, 6, 9, 10, 12, 25, and 26. 0.5 mL of vaccine formulation was injected intramuscularly (IM).
(§4) Geometric mean titers (GMTs) of IgG antibodies specific for each of the respective 0-antigen serotypes O1a, O2, O6, and O25b were quantified using a Luminex 4-plex dLIA assay. The 4-plex O-antigen IgG dLIA serology assay was completed as described in Example 4, above. Table 21 and 22, below, present data for IgG GMT titers for each of serotypes O1a, O2, O6, and O25b.

For test [2], the system named is E. coli O-antigen serotype O6. To be noted: 4 valent O-antigen SCP with CpG 1800 μg, dLIA standard (pAb/mAb) not specified. Here is the method: as §1, §2, §3, §4
Test [3] has as its system E. coli O-antigen serotype O1a. To be noted: 4 valent O-antigen SCP with CpG 1800 μg; dLIA standard (pAb/mAb) not specified; listed as CpG. Here is the method:
as §1, §2, §3, §4

Test [4] concerns E. coli O-antigen serotype O2. The settings on record: 4 valent O-antigen SCP with CpG 1800 μg, dLIA standard (pAb/mAb) not specified. Here is the method:
as §1, §2, §3, §4

As for CpG 24555 [CpG adjuvant], the “Serotype O25b IgG titers, fold increase vs. unadjuvanted titers” value in test [1] is given as “greater than twenty-fold increases”. Further, the “Serotype O6 IgG titers, fold increase vs. unadjuvanted titers” value is given as “less than 10 fold” in test [2] and “up to ten-fold increases” in test [2] (listed as CpG). In addition, the “Serotype O1a IgG titers, fold increase vs. unadjuvanted titers” value in test [3] is given as “greater than twenty-fold increases”. Further, the “Serotype O2 IgG titers, fold increase vs. unadjuvanted titers” value is “less than 10 fold” in test [4] and “up to ten-fold increases” in test [4] (listed as CpG).
